In brackets after ≈: the same amount, converted by molar mass. Activity calls are given as the source filed them. The rule behind the calls is not given here.
Key:
Leishmania donovani [1] = assay: Antileishmanial activity against Leishmania donovani in luciferase-promastigote system at 10 ug/ml; type: functional
Leishmania donovani [2] = assay: Antileishmanial activity against Leishmania donovani in luciferase-amastigote system; type: functional, organism-based

c1ccc(-c2nc(N3CCCC3)nc3c2CCc2ccccc2-3)cc1
inhibition at 10 µg/mL (Leishmania donovani [1]): 74.7%

c1ccc(C2NC(N3CCOCC3)=NC3=C2CCc2ccccc23)cc1 (configuration not stated)
inhibition at 10 µg/mL (Leishmania donovani [1]): 99.9%

Fc1ccc(-c2nc(N3CCN(c4ccccn4)CC3)nc3c2CCc2ccccc2-3)cc1
inhibition at 10 µg/mL (Leishmania donovani [1]): 44.9%

N=C(N)c1ccc(OCCCCCOc2ccc(C(=N)N)cc2)cc1 [PENTAMIDINE]
inhibition at 10 µg/mL (Leishmania donovani [1]): 100%

Fc1ccc(C2NC(N3CCOCC3)=NC3=C2CCc2ccccc23)cc1 (configuration not stated)
inhibition at 10 µg/mL (Leishmania donovani [1]): 99.6%

Fc1ccc(C2NC(N3CCCC3)=NC3=C2CCc2ccccc23)cc1 (configuration not stated)
inhibition at 10 µg/mL (Leishmania donovani [1]): 99.9%
IC50 (Leishmania donovani [2]): 4.07 µg/mL (≈ 11.7 µM)

Fc1ccc(C2NC(N3CCN(c4ccccn4)CC3)=NC3=C2CCc2ccccc23)cc1 (configuration not stated)
inhibition at 10 µg/mL (Leishmania donovani [1]): 68.2%
IC50 (Leishmania donovani [2]): 3.58 µg/mL (≈ 8.14 µM)

Clc1ccc(C2NC(N3CCCC3)=NC3=C2CCc2ccccc23)cc1 (configuration not stated)
inhibition at 10 µg/mL (Leishmania donovani [1]): 96.3%
IC50 (Leishmania donovani [2]): 8.95 µg/mL (≈ 24.6 µM)

c1ccc(-c2nc(N3CCCCC3)nc3c2CCc2ccccc2-3)cc1
inhibition at 10 µg/mL (Leishmania donovani [1]): 91.8%

Clc1ccc(C2NC(N3CCCCC3)=NC3=C2CCc2ccccc23)cc1 (configuration not stated)
inhibition at 10 µg/mL (Leishmania donovani [1]): 99.6%

c1ccc(C2NC(N3CCN(c4ccccn4)CC3)=NC3=C2CCc2ccccc23)cc1 (configuration not stated)
inhibition at 10 µg/mL (Leishmania donovani [1]): 99.4%

Fc1ccc(C2NC(N3CCCCC3)=NC3=C2CCc2ccccc23)cc1 (configuration not stated)
inhibition at 10 µg/mL (Leishmania donovani [1]): 99.9%
IC50 (Leishmania donovani [2]): 3.22 µg/mL (≈ 8.91 µM)

c1ccc(-c2nc(N3CCN(c4ccccn4)CC3)nc3c2CCc2ccccc2-3)cc1
inhibition at 10 µg/mL (Leishmania donovani [1]): 62.2%

Clc1ccc(C2NC(N3CCCCC3)=NC3=C2CCc2ccccc23)c(Cl)c1 (configuration not stated)
inhibition at 10 µg/mL (Leishmania donovani [1]): 99.7%

c1ccc(-c2nc(N3CCOCC3)nc3c2CCc2ccccc2-3)cc1
inhibition at 10 µg/mL (Leishmania donovani [1]): 71.5%

Clc1ccc(-c2nc(N3CCCCC3)nc3c2CCc2ccccc2-3)cc1
inhibition at 10 µg/mL (Leishmania donovani [1]): 53.5%

Clc1ccc(-c2nc(N3CCN(c4ccccn4)CC3)nc3c2CCc2ccccc2-3)c(Cl)c1
inhibition at 10 µg/mL (Leishmania donovani [1]): 15.7%

Clc1ccc(C2NC(N3CCCC3)=NC3=C2CCc2ccccc23)c(Cl)c1 (configuration not stated)
inhibition at 10 µg/mL (Leishmania donovani [1]): 99.8%

Clc1ccc(-c2nc(N3CCCC3)nc3c2CCc2ccccc2-3)cc1
inhibition at 10 µg/mL (Leishmania donovani [1]): 58.3%

c1ccc(C2NC(N3CCCCC3)=NC3=C2CCc2ccccc23)cc1 (configuration not stated)
inhibition at 10 µg/mL (Leishmania donovani [1]): 99.8%
IC50 (Leishmania donovani [2]): 3.48 µg/mL (≈ 10.1 µM)

Fc1ccc(-c2nc(N3CCCCC3)nc3c2CCc2ccccc2-3)cc1
inhibition at 10 µg/mL (Leishmania donovani [1]): 47.8%

Clc1ccc(-c2nc(N3CCCC3)nc3c2CCc2ccccc2-3)c(Cl)c1
inhibition at 10 µg/mL (Leishmania donovani [1]): 77.9%

c1ccc(C2NC(N3CCCC3)=NC3=C2CCc2ccccc23)cc1 (configuration not stated)
inhibition at 10 µg/mL (Leishmania donovani [1]): 99.8%

Fc1ccc(-c2nc(N3CCOCC3)nc3c2CCc2ccccc2-3)cc1
inhibition at 10 µg/mL (Leishmania donovani [1]): 64.8%

Clc1ccc(-c2nc(N3CCN(c4ccccn4)CC3)nc3c2CCc2ccccc2-3)cc1
inhibition at 10 µg/mL (Leishmania donovani [1]): 51.4%

Clc1ccc(-c2nc(N3CCOCC3)nc3c2CCc2ccccc2-3)c(Cl)c1
inhibition at 10 µg/mL (Leishmania donovani [1]): 93.1%

Clc1ccc(-c2nc(N3CCCCC3)nc3c2CCc2ccccc2-3)c(Cl)c1
inhibition at 10 µg/mL (Leishmania donovani [1]): 95.2%

Fc1ccc(-c2nc(N3CCCC3)nc3c2CCc2ccccc2-3)cc1
inhibition at 10 µg/mL (Leishmania donovani [1]): 61.8%

Clc1ccc(C2NC(N3CCN(c4ccccn4)CC3)=NC3=C2CCc2ccccc23)c(Cl)c1 (configuration not stated)
inhibition at 10 µg/mL (Leishmania donovani [1]): 99.9%
IC50 (Leishmania donovani [2]): 6.33 µg/mL (≈ 12.9 µM)

D-gluconic acid, 2,4:2',4'-O-[oxybis-oxidostibylidyne]bis-, trisodium salt, nonahydrate
inhibition (Leishmania donovani [1]): inactive

Clc1ccc(-c2nc(N3CCOCC3)nc3c2CCc2ccccc2-3)cc1
inhibition at 10 µg/mL (Leishmania donovani [1]): 74.8%

Clc1ccc(C2NC(N3CCOCC3)=NC3=C2CCc2ccccc23)cc1 (configuration not stated)
inhibition at 10 µg/mL (Leishmania donovani [1]): 98.7%
IC50 (Leishmania donovani [2]): 5.2 µg/mL (≈ 13.7 µM)

Clc1ccc(C2NC(N3CCN(c4ccccn4)CC3)=NC3=C2CCc2ccccc23)cc1 (configuration not stated)
inhibition at 10 µg/mL (Leishmania donovani [1]): 99.9%
IC50 (Leishmania donovani [2]): 2.65 µg/mL (≈ 5.81 µM)

Clc1ccc(C2NC(N3CCOCC3)=NC3=C2CCc2ccccc23)c(Cl)c1 (configuration not stated)
inhibition at 10 µg/mL (Leishmania donovani [1]): 99.7%

Reference: ChEMBL document CHEMBL1155997, “Design and synthesis of novel substituted quinazoline derivatives as antileishmanial agents” (Bioorg Med Chem Lett, 2009)
